Measurements as given in US10869846B2, “N-acetylcysteine amide (NAC amide) in the treatment of diseases and conditions associated with oxidative stress” (SENTIENT LIFESCIENCES, INC., priority 2005, dated 2020).
“And” between values parts separate entries of the source, which are not always exact repeats. Identical values can stand only once. Marks after values point to notes of the source that are not given here.

How the values were obtained:
[1] = system: Sprague Dawley rats; assay: MDA levels in tissues after 6Gy total-body x-ray radiation; type: in vivo, rat; details: for MDA level / MDA Mean: 6Gy total-body x-ray, 500 mg/kg orally; for MDA level: individual animals; for MDA Mean: n = 3; for lung MDA levels: treatment concurrent with irradiation, versus irradiation alone
Protocol: (§1) Animal studies: The irradiation of rats was performed at the Radiation Oncology Department of the Phelps County Regional Medical Center in Rolla, Mo., using a 16 MeV beam generated by a Varian linear accelerator, model Clinac 1800, and in accordance with the standards of humane laboratory animal protocols. A 20×20 or 25×25 cm field was used and output factors were checked once a week. Twelve animals were divided into 4 groups each containing 3 animals (Control, XRT, NAC amide+XRT and NAC+XRT). The radiation (XRT) control received whole body irradiation by 6 Gy of 16 MeV electrons. The NAC amide+XRT group received 500 mg/kg/day NAC amide immediately before irradiation and for three days after until sacrifice. The rats were anesthetized and heparinized blood was collected via cardiopuncture. Following sacrifice, liver, lung, brain and spleen were removed and stored at −70° C. until homogenization.
(§2) All experiments were performed using adult Albino SASCO Sprague Dawley female rats weighing about 250 g, which were purchased from Charles River Laboratories Inc. (Portage, Mich.). Twelve rats were shipped in paper crates (4 in each crate). Rats were delivered with a certificate including serological, bacteriological, pathological parasitological information. They were divided into 4 cages (3 rats in each cage) and kept in a temperature controlled (20° C.) room equipped to maintain a 12 h light-dark cycle. Standard rat chow (Purina rat chow) and tap water were supplied in individual glass bottle and given ad libitum. Water was changed daily. Weights of the animal were taken before giving the NAC amide treatment solution and amount of food eaten and water consumed was not measured because NAC amide was given orally but not in the drinking water or food.
(§3) NAC amide was provided by Novetide Ltd (Haifa Bay, Israel) including certificate of analysis and MSDS (lot #40233-64). NAC amide feeding solution was prepared freshly each day right before the administration by weighing 1.25 g NAC amide solid sample (Type HR-120 electronic balance, A&D Company limited, Japan. S/N: 12202464) and adding into 10 ml PBS solution and put on ice. One ml of this solution was administrated (gavaged) per rat orally by using animal feeding biomedical needles and 3 ml BD Luer-Lok Tip syringes. Rats received one-dose total-body 6 Gy/16 MeV x-ray radiation and 3 rats in each group were held in a covered bucket and received radiation at the same time. Each day at the same time, 500 mg/Kg body weight of NAC amide was administrated to the animals.
For MDA levels, 350 μL tissue homogenate was used to react with 100 μL of 500 ppm BHT solution and 550 μL solution of 10% TCA solution, therefore, the total volume here was 1000 μL. After boiling the whole solution, 500 μL was taken out and react with 500 μL TBA and the total volume here was 1000 μL also.
Glutathione (GSH) and Glutathione Disulfide (GSSG) Determination: Cells or tissue samples were homogenized on ice and derivatized with N-(1-pyrenyl)-maleimide (NPM). The derivatized samples were injected onto a 3 μm C18 column (Column Engineering) in a reverse phase HPLC system with a mobile phase of 35% water, 65% acetonitrile containing 1 mL/L of acetic acid and o-phosphoric acid (R. Winters, et al., Anal. Biochem., 227:14-21 (1995) and H. H. Draper et al., Free Rad. Biol. Med., 15:353-363 (1993)). Malondialdehyde (MDA) determinations were made as described in J. Gutteridge, Anal. Biochem., 69: 518-526 (1975).

[2] = system: Sprague Dawley rats; assay: Catalase activities in tissues after 6Gy total-body x-ray radiation; type: in vivo, rat; details: 500 mg/kg orally; for Catalase level: individual animals; for Catalase Mean: n = 3
Protocol: as §1, §2, §3
In assay solution, k(enzyme activity)= 1/60*ln(A0/A60)*(Total Volume of reaction/volume of sample) A0—Absorbance at 0 second A60—Absorbance at 60 second In sample, K(specific activity)=k/protein concentration.
Enzyme Activity Assays: Catalase (CAT) activity was determined spectrophotometrically and was expressed in kunits/mg protein and kunits/10^6 cells as described by M. Bradford, Anal. Biochem., 72:248-256 (1976).

[3] = LIVER, listed as AD4, 500 mg/kg

Row | Compound | MDA Mean ([1]; BRAIN) [nmol/100 mg] | MDA Mean ([1]; KIDNEY) | MDA Mean ([1]; LIVER) | MDA Mean ([1]; LUNG) | lung MDA levels [1] | Catalase Mean ([2]; LIVER) | Catalase Mean ([2]; LUNG) | other results
1 | N-acetylcysteine amide [NAC amide] | 5.48 | 1.64** nmol/100 mg | 4.38** nmol/100 mg | 1.53** nmol/100 mg | significantly lowered | 59.28** mU/mg | 0.68** mU/mg | MDA level ([1]; BRAIN, listed as AD4, 500 mg/kg): 5.79 nmol/100 mg and 5.53 nmol/100 mg and 5.13 nmol/100 mg; MDA level ([1]; KIDNEY, listed as AD4, 500 mg/kg): 1.96 nmol/100 mg and 1.45 nmol/100 mg; MDA level ([1]; KIDNEY, listed as AL4, 500 mg/kg): 1.5 nmol/100 mg; MDA level [1, 3]: 4.14 nmol/100 mg and 4.65 nmol/100 mg and 4.36 nmol/100 mg; MDA level ([1]; LUNG, listed as AD4, 500 mg/kg): 1.72 nmol/100 mg and 1.58 nmol/100 mg and 1.28 nmol/100 mg; Catalase level [2, 3]: 69.63 mU/mg and 57.88 mU/mg and 50.33 mU/mg; Catalase level ([2]; LUNG, listed as AD4, 500 mg/kg): 1.02 mU/mg and 0.53 mU/mg; Catalase level ([2]; LUNG, listed as ND4, 500 mg/kg): 0.50 mU/mg
2 | CC(=O)N[C@@H](CS)C(=O)O [NAC, N-acetylcysteine] | 6.15 | 1.65** nmol/100 mg | 5.07**/*** nmol/100 mg | 2.52** nmol/100 mg | did not change the MDA levels significantly | 71.11*** mU/mg | 1.13 mU/mg | MDA level ([1]; BRAIN, 500 mg/kg): 6.42 nmol/100 mg and 6.69 nmol/100 mg and 5.33 nmol/100 mg; MDA level ([1]; KIDNEY, 500 mg/kg): 1.76 nmol/100 mg and 1.78 nmol/100 mg and 1.41 nmol/100 mg; MDA level ([1]; LIVER, 500 mg/kg): 5.1 nmol/100 mg (2×) and 5.02 nmol/100 mg; MDA level ([1]; LUNG, 500 mg/kg): 2.58 nmol/100 mg and 2.34 nmol/100 mg and 2.63 nmol/100 mg; Catalase level ([2]; LIVER, 500 mg/kg): 75.22 mU/mg and 69.09 mU/mg and 69.00 mU/mg; Catalase level ([2]; LUNG, 500 mg/kg): 2.12 mU/mg and 0.79 mU/mg and 0.48 mU/mg
